Results: ChEMBL document CHEMBL1201862, “PubChem BioAssay data set” (2004)
Activity calls are given as the source filed them.

Legend:
[1] = target: Cytochrome P450 2C19 (Homo sapiens, UniProt P33261); assay: Cytochrome panel assay with activity outcomes. Panel member name: p450-cyp2c19 Compounds with AC50 equal or less than 10 uM are considered active; format: functional; conditions: read-out: AC50
[2] = target: Cytochrome P450 3A4 (Homo sapiens, UniProt P08684);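 further: CYP3A4 tested as one member of a cytochrome P450 panel screen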
[3] = target: Cytochrome P450 2C9 (Homo sapiens, UniProt P11712)
[4] = target: T1, Coagulation factor XII (Homo sapiens, UniProt P00748); format: functional;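 further: activated factor XIIa alpha cleaving a fluorogenic AMC peptide substrate; inhibitor potency from loss of enzyme activity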
T1 sequence (P00748 whole entry): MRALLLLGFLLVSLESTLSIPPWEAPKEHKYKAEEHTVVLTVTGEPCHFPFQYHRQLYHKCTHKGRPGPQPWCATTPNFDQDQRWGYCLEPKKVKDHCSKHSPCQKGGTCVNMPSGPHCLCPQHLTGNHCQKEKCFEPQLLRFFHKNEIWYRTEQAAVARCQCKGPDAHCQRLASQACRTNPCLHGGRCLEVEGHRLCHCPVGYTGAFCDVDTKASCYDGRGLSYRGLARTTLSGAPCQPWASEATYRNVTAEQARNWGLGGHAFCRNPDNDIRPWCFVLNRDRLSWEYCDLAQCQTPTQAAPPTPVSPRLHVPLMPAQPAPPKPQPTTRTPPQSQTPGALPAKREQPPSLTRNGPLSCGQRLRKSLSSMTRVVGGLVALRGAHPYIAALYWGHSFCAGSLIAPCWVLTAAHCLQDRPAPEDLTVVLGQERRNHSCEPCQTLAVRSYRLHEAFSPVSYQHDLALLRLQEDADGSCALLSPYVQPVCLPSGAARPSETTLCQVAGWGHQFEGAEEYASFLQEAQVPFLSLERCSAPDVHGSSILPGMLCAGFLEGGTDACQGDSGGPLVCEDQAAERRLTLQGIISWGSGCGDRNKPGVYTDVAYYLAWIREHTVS

[5] = Luminescence Cell-Based Dose Confirmation HTS to Identify Activators of 5'UTR Stem-Loop Driven Alpha-Synuclein mRNA Translation in H4 Neuroglioblastoma Cells. [Related pubchem assays: 1829 (Project Summary), 1814 (Primary HTS)]; format: functional
[6] = Luminescence Cell-Based Dose Response to Identify Activators of Luciferase Translation or Activity in H4-C Neuroglioblastoma Cells. [Related pubchem assays: 1829 (Project Summary), 1814 (Primary HTS)]; format: functional
[7] = Luminescence Cell-Based Dose Confirmation to Identify Activators of 5'UTR Stem-Loop Driven Alpha-Synuclein mRNA Translation in H4 Neuroglioblastoma Cells. [Related pubchem assays: 1829 (Project Summary), 1814 (Primary HTS)]; format: functional
[8] = system: H4; assay: Luminescence Cell-Based Dose Response HTS to Identify Activators of 5'UTR Stem-Loop Driven Prion Protein mRNA Translation in H4 Neuroglioblastoma Cells. [Related pubchem assays: 1829 (Project Summary), 1814 (Primary HTS)]; format: functional; conditions: Homo sapiens
[9] = Luminescence Cell-Based Dose Response HTS to Identify Activators of Luciferase Translation or Activity in H4 […] Cells. [Related pubchem assays: 1829 (Project Summary), 1814 (Primary HTS)]; format: functional
[10] = Luminescence Cell-Based Dose Response to Identify Activators of 5'UTR Stem-Loop Driven Prion Protein mRNA Translation in H4-C Neuroglioblastoma Cells. [Related pubchem assays: 1829 (Project Summary), 1814 (Primary HTS)]; format: functional
[11] = target: DNA dC->dU-editing enzyme APOBEC-3G (Homo sapiens, UniProt Q9HC16); assay: Dose Response confirmation of small molecule APOBEC3G DNA Deaminase Inhibitors via a fluorescence-based single-stranded DNA deaminase assay. [Related pubchem assays (depositor defined):AID493012, AID493028]; format: functional
[12] = target: T2, Voltage-gated N-type calcium channel alpha-1B subunit/Amyloid beta A4 precursor protein-binding family A member 1 (Homo sapiens, UniProt Q00975+Q02410); format: protein assay
[13] = target: T2, Voltage-gated N-type calcium channel alpha-1B subunit/Amyloid beta A4 precursor protein-binding family A member 1; format: protein assay; remark: listed apart in the source
[14] = HPDE-C7 pancreatic duct cell viability loss – fluorescence, HTS (AID 430); format: functional, cell-based; conditions: Homo sapiens
[15] = viability loss of HPDE-C7K cells – cell-based, fluorescence, HTS, primary screen (AID 431); format: functional; conditions: Homo sapiens
[16] = target: Disintegrin and metalloproteinase domain-containing protein 17 (Homo sapiens, UniProt P78536); assay: exosite inhibitors of ADAM17, dose response, biochemical (AID 743260)
[17] = inhibition of ADAM10 peptide cleavage – biochemical, FRET peptide substrate, recombinant human ADAM10, selectivity assay for ADAM17 exosite inhibitor project, dose response (AID 743259);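 further: ADAM10 enzyme cleaving a FRET peptide substrate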
[18] = target: Estrogen receptor beta (Homo sapiens, UniProt Q92731);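 further: recombinant ER-beta bound to coactivator SRC1 peptide in presence of estradiol agonist; inhibitors block coactivator peptide binding and lower the FRET signal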
[19] = target: T3, Histone-lysine N-methyltransferase NSD2 (Homo sapiens, UniProt O96028); format: biochemical
T3 sequence (O96028 whole entry): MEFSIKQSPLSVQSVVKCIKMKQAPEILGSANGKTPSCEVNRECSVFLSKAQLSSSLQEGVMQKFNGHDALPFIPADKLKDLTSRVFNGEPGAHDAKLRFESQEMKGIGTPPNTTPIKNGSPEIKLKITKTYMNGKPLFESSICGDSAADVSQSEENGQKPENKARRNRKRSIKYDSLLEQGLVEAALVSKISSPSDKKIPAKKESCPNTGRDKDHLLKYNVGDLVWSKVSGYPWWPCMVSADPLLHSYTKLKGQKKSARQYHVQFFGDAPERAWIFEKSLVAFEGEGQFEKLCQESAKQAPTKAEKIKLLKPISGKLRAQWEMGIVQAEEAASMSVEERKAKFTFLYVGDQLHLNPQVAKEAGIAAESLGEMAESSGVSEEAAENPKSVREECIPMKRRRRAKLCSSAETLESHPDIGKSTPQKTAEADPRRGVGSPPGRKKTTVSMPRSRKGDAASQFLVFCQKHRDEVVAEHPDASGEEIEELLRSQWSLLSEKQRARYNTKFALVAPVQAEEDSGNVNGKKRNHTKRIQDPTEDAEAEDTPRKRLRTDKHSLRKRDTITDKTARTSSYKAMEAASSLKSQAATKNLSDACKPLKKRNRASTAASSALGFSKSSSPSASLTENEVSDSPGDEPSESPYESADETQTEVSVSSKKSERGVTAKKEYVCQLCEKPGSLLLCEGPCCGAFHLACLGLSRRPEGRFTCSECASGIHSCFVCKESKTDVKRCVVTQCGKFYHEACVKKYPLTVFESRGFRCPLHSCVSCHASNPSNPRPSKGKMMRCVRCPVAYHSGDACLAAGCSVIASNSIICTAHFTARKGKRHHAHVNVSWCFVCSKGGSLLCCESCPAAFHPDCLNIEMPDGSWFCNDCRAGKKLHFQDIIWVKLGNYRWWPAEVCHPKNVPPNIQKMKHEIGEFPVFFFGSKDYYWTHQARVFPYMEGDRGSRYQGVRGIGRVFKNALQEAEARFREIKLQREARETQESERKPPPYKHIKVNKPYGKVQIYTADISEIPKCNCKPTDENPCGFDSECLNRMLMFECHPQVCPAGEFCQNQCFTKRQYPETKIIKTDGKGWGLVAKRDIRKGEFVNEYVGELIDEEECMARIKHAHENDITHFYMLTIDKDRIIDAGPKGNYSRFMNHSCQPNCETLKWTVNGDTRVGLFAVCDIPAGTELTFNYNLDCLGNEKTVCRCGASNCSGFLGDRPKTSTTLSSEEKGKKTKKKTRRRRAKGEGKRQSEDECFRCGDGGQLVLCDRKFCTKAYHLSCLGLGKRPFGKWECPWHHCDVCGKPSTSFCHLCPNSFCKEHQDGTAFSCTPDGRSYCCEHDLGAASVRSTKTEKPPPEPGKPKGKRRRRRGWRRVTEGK

[20] = target: T4, Polyadenylate-binding protein 1 (Homo sapiens, UniProt P11940); assay: MLLE domain peptide-binding blockers, IC50 – biochemical, fluorescence polarization, FITC-PAM2 peptide, dose response (AID 602259); format: functional; conditions: read-out: IC50_Mean
[21] = target: T4, Polyadenylate-binding protein 1; assay: MLLE binding blockers, Cy5 peptide tracer – biochemical, fluorescence polarization, Cy5-PAM2 peptide, secondary, miRNA deadenylation inhibitor project, dose response (AID 602260); format: functional; conditions: read-out: IC50_Mean
[22] = target: Peroxisome proliferator-activated receptor gamma/Nuclear receptor coactivator 3 (Homo sapiens, UniProt P37231); assay: (§1) TR-FRET dose response biochemical High Throughput Screening assay for agonists of the steroid receptor coactivator 3 (SRC-3) recruitment by the peroxisome proliferator-activated receptor gamma (PPAR gamma): non-selective agonists. [Related pubchem assays: 1301 (Confirmation screen.), 1048 (Primary screen.)]; format: functional
[23] = target: Peroxisome proliferator-activated receptor gamma/Nuclear receptor coactivator 1 (Homo sapiens, UniProt P37231); assay: as §1, with “1 (SRC-1)” for “3 (SRC-3)”, “assays (depositor defined):AID1300, AID1808, AID504735, AID631]” for “assays: 1301 (Confirmation screen.), 1048 (Primary screen.)]”; format: protein assay
[24] = target: Peroxisome proliferator-activated receptor gamma/Nuclear receptor coactivator 2 (Homo sapiens, UniProt P37231); assay: TR-FRET dose response biochemical High Throughput Screening assay for agonists of the steroid receptor coactivator 2 (SRC-2) recruitment by the peroxisome proliferator-activated receptor gamma (PPAR gamma): non-selective agonists. [Related pubchem assays: 1297, 1032 ]; format: functional
[25] = viability of uninfected HEp-2 cells – cell-based, HTS, cytotoxicity control for RSV inhibitor project, dose response (AID 2410); format: functional; conditions: human respiratory syncytial virus
[26] = target: FAD-linked sulfhydryl oxidase ALR (Homo sapiens, UniProt P55789); assay: ALR-catalysed DTT oxidation blockers – biochemical, H2O2 detection, luminescence, cherry-pick, dose response (AID 493248)
[27] = viability of PTEN-deleted HCT116 cells – cell-based, HCT116 PTEN knockout, dose response (AID 1047); format: functional;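 further: HCT116 colon tumor cells with PTEN knocked out; cells exposed to compound for 60 hours before readout; potency for loss of cell viability measured by luminescence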
[28] = viability of HCT116 lacking mutant beta-catenin – cell-based, human colon tumor, dose response (AID 1045); format: functional;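 further: HCT116 colon tumor cells with beta catenin knocked out; cells exposed to compound for 60 hours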
[29] = Luminescence Cell-Based Dose Retest to Confirm Inhibitors of Cancer Stem Cells. [Related pubchem assays (depositor defined):AID2717, AID2721]; format: functional; conditions: Homo sapiens

T2 sequence (Q00975 whole entry): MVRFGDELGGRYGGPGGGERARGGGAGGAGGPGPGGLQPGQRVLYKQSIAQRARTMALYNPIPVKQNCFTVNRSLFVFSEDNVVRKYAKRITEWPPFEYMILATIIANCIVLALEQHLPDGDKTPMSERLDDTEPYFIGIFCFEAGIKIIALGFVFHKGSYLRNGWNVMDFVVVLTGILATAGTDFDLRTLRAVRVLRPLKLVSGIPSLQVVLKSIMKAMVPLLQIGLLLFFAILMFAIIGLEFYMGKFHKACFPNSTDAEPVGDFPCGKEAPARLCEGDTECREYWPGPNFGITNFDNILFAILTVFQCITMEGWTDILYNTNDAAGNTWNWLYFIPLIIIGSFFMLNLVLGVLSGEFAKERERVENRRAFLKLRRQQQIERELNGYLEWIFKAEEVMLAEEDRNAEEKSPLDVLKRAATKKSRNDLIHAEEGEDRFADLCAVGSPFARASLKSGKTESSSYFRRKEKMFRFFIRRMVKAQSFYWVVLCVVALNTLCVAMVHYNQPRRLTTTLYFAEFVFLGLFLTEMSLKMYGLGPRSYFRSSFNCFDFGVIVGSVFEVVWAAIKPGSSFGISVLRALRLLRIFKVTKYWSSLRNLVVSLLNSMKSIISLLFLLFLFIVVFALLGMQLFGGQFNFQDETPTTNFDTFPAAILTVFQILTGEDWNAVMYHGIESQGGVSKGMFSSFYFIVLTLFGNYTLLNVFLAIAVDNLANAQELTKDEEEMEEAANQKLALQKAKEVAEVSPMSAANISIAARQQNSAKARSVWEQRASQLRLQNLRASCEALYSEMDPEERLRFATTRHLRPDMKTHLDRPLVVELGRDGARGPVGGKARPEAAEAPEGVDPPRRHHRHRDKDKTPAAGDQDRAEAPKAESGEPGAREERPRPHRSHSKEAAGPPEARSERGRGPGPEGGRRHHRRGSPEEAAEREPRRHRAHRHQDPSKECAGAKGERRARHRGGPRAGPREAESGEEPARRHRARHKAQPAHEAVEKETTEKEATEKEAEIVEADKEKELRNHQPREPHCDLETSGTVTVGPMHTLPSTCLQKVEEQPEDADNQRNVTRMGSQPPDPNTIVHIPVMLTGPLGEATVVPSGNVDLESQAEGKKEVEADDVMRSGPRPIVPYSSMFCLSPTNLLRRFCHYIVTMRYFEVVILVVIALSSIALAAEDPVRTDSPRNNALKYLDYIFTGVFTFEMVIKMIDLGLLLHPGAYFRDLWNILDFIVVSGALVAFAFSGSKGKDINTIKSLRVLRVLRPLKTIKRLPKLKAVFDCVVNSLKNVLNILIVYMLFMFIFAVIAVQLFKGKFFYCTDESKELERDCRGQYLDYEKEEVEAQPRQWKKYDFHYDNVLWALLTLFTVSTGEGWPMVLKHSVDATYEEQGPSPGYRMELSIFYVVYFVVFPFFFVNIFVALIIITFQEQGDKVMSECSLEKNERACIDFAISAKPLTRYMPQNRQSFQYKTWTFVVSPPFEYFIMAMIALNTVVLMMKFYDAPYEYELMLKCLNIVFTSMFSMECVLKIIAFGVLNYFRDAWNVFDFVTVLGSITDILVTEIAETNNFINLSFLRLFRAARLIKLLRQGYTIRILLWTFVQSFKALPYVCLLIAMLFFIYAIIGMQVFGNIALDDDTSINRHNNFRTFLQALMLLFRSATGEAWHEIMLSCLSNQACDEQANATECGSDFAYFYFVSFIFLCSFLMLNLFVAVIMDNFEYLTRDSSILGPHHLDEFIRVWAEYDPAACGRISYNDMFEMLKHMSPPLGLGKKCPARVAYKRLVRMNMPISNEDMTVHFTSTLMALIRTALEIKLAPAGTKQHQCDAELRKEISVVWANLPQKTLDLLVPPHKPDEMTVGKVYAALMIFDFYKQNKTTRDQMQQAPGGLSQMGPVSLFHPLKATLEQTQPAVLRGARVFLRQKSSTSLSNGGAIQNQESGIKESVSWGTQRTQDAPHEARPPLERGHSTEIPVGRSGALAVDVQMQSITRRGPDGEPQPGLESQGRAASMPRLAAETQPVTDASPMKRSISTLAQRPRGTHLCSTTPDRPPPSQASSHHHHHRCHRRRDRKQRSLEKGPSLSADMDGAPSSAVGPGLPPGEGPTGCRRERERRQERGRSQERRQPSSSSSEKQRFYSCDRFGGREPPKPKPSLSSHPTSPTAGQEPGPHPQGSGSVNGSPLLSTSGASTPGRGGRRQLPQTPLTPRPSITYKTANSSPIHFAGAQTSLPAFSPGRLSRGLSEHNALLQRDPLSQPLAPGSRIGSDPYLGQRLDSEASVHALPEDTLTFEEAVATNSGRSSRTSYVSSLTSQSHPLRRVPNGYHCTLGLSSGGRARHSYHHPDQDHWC
T2 sequence (Q02410 whole entry): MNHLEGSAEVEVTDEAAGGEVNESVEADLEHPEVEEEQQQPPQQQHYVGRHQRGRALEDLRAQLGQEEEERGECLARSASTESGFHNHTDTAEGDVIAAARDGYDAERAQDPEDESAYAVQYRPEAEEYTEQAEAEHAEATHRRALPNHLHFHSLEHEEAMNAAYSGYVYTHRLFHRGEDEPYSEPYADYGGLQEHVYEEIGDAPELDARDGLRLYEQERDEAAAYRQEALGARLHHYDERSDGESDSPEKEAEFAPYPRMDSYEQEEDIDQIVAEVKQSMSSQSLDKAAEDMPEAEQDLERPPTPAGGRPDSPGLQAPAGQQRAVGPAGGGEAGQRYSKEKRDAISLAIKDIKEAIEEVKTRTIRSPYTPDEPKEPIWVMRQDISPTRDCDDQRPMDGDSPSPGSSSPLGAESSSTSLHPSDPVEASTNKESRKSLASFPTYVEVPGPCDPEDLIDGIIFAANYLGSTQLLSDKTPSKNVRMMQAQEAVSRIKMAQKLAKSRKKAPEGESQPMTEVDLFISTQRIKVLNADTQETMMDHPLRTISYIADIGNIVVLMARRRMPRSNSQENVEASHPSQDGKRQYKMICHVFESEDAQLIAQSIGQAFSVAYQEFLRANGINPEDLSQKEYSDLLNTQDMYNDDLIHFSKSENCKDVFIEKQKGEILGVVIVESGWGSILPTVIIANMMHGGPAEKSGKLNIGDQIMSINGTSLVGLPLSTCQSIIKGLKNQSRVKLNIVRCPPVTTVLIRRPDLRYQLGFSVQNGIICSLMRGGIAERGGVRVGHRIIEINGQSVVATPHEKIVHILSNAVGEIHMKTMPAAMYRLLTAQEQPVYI
Disintegrin and metalloproteinase domain-containing protein 17, sequence (P78536 whole entry, the tested form may be a part): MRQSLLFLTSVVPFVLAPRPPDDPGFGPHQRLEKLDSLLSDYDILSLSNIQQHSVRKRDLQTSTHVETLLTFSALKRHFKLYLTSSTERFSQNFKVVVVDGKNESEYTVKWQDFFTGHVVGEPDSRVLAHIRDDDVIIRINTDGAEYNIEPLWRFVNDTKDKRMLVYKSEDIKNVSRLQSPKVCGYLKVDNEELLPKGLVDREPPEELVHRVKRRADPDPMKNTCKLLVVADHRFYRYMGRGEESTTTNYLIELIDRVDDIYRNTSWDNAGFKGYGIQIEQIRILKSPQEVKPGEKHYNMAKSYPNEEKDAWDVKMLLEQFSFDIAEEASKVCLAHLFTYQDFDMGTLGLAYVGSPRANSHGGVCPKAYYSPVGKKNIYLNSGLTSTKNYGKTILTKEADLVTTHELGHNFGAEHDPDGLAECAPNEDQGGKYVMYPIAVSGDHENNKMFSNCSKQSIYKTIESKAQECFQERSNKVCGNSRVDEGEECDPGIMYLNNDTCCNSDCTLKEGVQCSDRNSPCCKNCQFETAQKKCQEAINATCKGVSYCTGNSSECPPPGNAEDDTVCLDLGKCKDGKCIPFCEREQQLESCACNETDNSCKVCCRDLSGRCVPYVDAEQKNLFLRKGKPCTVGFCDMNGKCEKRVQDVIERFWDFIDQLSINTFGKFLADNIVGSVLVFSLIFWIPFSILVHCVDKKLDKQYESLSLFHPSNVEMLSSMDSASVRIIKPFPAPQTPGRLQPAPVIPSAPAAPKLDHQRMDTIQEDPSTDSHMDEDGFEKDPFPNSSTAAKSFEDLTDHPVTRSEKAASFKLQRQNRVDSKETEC
Cytochrome P450 3A4, sequence (P08684 whole entry): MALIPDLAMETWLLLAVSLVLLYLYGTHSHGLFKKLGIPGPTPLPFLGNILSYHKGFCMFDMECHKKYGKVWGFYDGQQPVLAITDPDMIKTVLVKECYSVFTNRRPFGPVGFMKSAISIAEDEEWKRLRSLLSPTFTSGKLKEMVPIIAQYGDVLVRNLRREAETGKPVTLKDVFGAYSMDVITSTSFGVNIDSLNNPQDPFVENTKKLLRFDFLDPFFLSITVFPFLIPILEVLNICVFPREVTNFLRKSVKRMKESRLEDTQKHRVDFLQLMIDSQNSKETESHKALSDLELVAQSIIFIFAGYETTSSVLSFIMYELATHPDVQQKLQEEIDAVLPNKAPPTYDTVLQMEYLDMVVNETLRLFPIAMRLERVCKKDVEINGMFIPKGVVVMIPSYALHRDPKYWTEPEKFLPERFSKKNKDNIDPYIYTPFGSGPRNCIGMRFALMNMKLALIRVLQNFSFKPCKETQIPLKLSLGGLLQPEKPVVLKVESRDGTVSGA
Estrogen receptor beta, sequence (Q92731 whole entry): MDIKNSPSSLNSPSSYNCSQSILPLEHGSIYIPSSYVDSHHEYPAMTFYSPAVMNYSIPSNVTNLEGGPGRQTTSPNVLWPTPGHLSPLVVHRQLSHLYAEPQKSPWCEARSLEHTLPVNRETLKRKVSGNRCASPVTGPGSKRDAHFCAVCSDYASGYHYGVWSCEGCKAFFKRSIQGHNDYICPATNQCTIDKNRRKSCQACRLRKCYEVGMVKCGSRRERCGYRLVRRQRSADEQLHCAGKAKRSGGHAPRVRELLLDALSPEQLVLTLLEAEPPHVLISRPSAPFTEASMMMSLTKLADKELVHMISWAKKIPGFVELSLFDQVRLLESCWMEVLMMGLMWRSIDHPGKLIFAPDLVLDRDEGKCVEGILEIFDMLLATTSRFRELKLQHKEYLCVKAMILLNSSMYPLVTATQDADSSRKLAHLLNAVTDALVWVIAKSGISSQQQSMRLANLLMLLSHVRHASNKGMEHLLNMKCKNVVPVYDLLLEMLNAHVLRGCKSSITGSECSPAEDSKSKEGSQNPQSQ

COC(=O)N1CCC2(CC1)CN(C(c1ccccc1)c1ccccc1)C2
AC50 [1]: 39.8 µM (inconclusive)
AC50 [2]: inconclusive

C/C(NCCN1CCOCC1)=C1/C(=O)NC(=O)N(Cc2ccccc2)C1=O
AC50 [3]: 25.1 µM (inconclusive)
AC50 [2]: inconclusive

Fc1cc(F)c2nc(N3CCCC3)sc2c1
IC50 [4]: > 50 µM (inactive)

COc1ccc(-c2csc(NC(=O)COC(=O)c3ccco3)n2)cc1
EC50 [5]: 35.9 µM (active)
EC50 [6]: > 12 µM (not active)
EC50 [7]: > 12 µM (not active)
EC50 [8]: 0.188 µM (active)
EC50 [9]: 29 µM (active)
EC50 [10]: > 12 µM (not active)

COc1ccc(OC)c(C2CC(=O)N3CN(c4ccccc4)CSC3=C2C#N)c1 (centres undefined)
IC50 [11]: 11.8 µM (active)
IC50 [12]: > 50 µM (inactive)
IC50 [13]: 6.54 µM (active)

COc1ccc(C2N(c3ccccc3)CCN2c2ccccc2)cc1O
IC50 [4]: > 50 µM (inactive)

COc1ccc(NC(=O)c2oc3ccccc3c2NC(=O)c2ccc(OC)c(OC)c2)c(OC)c1
EC50 [14]: > 20 µM (not active)
EC50 [15]: > 20 µM (not active)

COc1ccc(-c2ccc(CN3C(C(C)C)C(=O)N(Cc4cn(Cc5ccco5)nn4)CCS3(=O)=O)cc2)cc1OC (centres undefined)
IC50 [16]: > 69.5 µM (inactive)
IC50 [17]: > 69.5 µM (inactive)

COC(=O)Nc1c(-c2ccccc2)nc2ccc(C)cn12
IC50 [18]: > 50 µM (not active)

COCCNC(=O)CSc1nnc2c(Cl)cc(Cl)cn12
IC50 [4]: > 50 µM (inactive)

Cc1oc2nc(SCC(=O)NCCCO)nc(N)c2c1C
IC50 [18]: > 50 µM (not active)

CC(C)CN(CC(C)C)C1=N/C(=C\c2ccco2)C(=O)N1c1ccccc1
AC50 [2]: inconclusive

CCC(C)NCCCCOc1ccc(Cl)cc1C (centres undefined)
AC50 [19]: > 20 µM (inactive)

CCNC(=S)NC(=Nc1nc(C)cc(C)n1)NCc1cccnc1
IC50 [20]: > 66 µM (inactive)
IC50 [21]: > 66 µM (inactive)
IC50 [12]: > 50 µM (inactive)
IC50 [13]: 9.16 µM (active)

COc1ccc2c3nc4ccccc4c-3c(O)oc2c1
EC50 [22]: > 79.4 µM (not active)
EC50 [6]: 0.533 µM (active)
EC50 [7]: 0.393 µM (active)
EC50 [23]: 7.49 µM (active)
EC50 [8]: 20.1 µM (inconclusive)
EC50 [24]: 8.33 µM (active)
EC50 [9]: < 0.1 µM (active)
EC50 [10]: > 12 µM (not active)

Cn1c2c(c3ccccc31)CCSC2=O
IC50 [4]: > 50 µM (inactive)
CC50 [25]: > 50 µM (active)

CC1CCN(C(=O)c2ccc3ccccc3c2)CC1
EC50 [5]: < 0.1 µM (active)
EC50 [6]: 10.2 µM (active)
EC50 [7]: 0.449 µM (active)
EC50 [8]: > 120 µM (not active)
EC50 [9]: 35 µM (active)
EC50 [10]: 1.09 µM (active)

CCN(CCNC(=O)C1CCN(Cc2nc(-c3ccc(Cl)cc3)oc2C)CC1)c1ccccc1
EC50 [14]: > 20 µM (not active)
EC50 [15]: > 20 µM (not active)
AC50 [26]: 4.08 µM (active)
EC50 [27]: 6.02 µM (active)
EC50 [28]: 6.26 µM (active)

Cc1ccc(/C=C/C(=O)Nc2ccc(Oc3ccccc3)cc2)o1
IC50 [16]: > 69.6 µM (inactive)
IC50 [17]: > 69.6 µM (inactive)
AC50 [29]: 5.29 µM (active)

COc1ccc(/N=C2\SC(CC(=O)Nc3ccc(F)cc3)C(=O)N2Cc2ccco2)cc1 (centres undefined)
IC50 [16]: > 69.5 µM (inactive)
IC50 [17]: > 69.5 µM (inactive)
